According to patent EP1591123A1, “USES OF NARINGENIN, NARINGIN AND SALTS THEREOF AS EXPECTORANTS IN THE TREATMENT OF COUGH, AND COMPOSITIONS THEREOF” (Su, Wei-wei, priority 2003, dated 2004):
Where a name gives a salt, the structure may show the parent alone.

Experiments:
mice [1] = assay: Antitussive test of Naringenin, spray by high concentration ammonia (Example 30); assay type: in vivo; conditions: for R Value: EDT50 of the treatment / EDT50 of the control x 100%; for EDT50: mice, oral, dose 0.2 (mg/20g), spray one hour later
Excerpt: 1. Animal: 120 healthy male mice weighing 19.5-22.1g was grouped into 8 groups random after labeled, which was selected from 130 male mice weighing 19.3-22.6g. Every group was 15 mice. Eight group were set including negative control group, positive control group, high dose group of Naringenin, middle dose group of Naringenin, low dose group of Naringenin, high dose group of sodium salt of Naringenin, middle dose group of sodium salt of Naringenin, low dose group of sodium salt of Naringenin.
• 1) Blank control group: physiological saline, 0.9% NaCl; • 2) Positive control group: 30mg Dextromethorphan Hydrobromide was dissolve into 20 ml physiological saline and the sample concentration was 1.5 mg/ml to obtain the solution for positive control. • 3) low dose group of Naringenin: weighting out the appropriate amount of Naringenin and dissolving it in physiological saline, then the sample concentration was 0.5 mg/ml. • 4) middle dose group of Naringenin: weighting out the appropriate amount of Naringenin and dissolving it in physiological saline, then the sample concentration was 1.5mg/ml. • 5) high dose group of Naringenin: weighting out the appropriate amount of Naringenin and dissolving it in physiological saline, then the sample concentration was 4.5 mg/ml. • 6) low dose group of sodium salt of Naringenin: weighting out the appropriate amount of sodium salt of Naringenin and dissolving it in physiological saline, then the sample concentration was 0.5 mg/ml. • 7) middle dose group of sodium salt of Naringenin: weighting out the appropriate amount of sodium salt of Naringenin and dissolving it in physiological saline, then the sample concentration was 1.5 mg/ml. • 8) high dose group of sodium salt of Naringenin: weighting out the appropriate amount of sodium salt of Naringenin and dissolving it in physiological saline, then the sample concentration was 4.5 mg/ml.
Animals were oral administered, and were sprayed one hour later. After the spray took out the animals and observed the tussive action. Observed the time of tussis in one minutes, if it appeared typical tussis three times in one minutes(shrinking the abdomen muscle or shrinking chest, puffing mouth at the same time, sometimes appearing tussive sound), we consider it "appearing tussis", otherwise "no tussis".
We calculated the spraying time that half of mice were tusisive by sequential method. And calculated the R, the drug was provided with effect of relieve a cough if R>130%. The drug was provided with remarkable effect of relieve a cough if R>150%. Underside is expressions: R=(EDT50 of the treatment)/(EDT50 of the control)× 100% [formula] EDT50=log^-1c/n ('n' is the number of animal, 'c' is the sum of 'rx' value, 'r' is the number of animal in every group, 'x' is the logarithm of dose(namely spray time).)

mice [2] = assay: Dispel phlegm test of Naringenin, Phenol Red excretion in trachea (Example 31); assay type: in vivo; conditions: for Dispel phlegm ratio: group given drug / blank control group x 100%; for Excretion quantity of Phenol Red / Rectified excretion quantity of Phenol Red: mice, oral, X±S; for Rectified excretion quantity of Phenol Red: excretion quantity / weight of animal
Excerpt: • 1. Animal: 80 healthy female mice weighing 18.5-22.0g was grouped into 8 groups random after labeled, which was selected from 90 female mice weighing 18.0-22.1g. Every group was 10 mice. Eight groups were set including negative control group, positive control group, high dose group of Naringenin, middle dose group of Naringenin, low dose group of Naringenin, high dose group of sodium salt of Naringenin, middle dose group of sodium salt of Naringenin, low dose group of sodium salt of Naringenin. […] Sample source and preparation • 1) Blank control group: physiological saline, 0.9% NaCl; • 2) Positive control group: 0.2g Tankejing was dissolve into 10 ml 0.9% NaCl and the sample concentration was 20 mg/ml to obtain the solution for positive control. • 3) low dose group of Naringenin: 0.5 mg/ml solution of Naringenin was prepared by weighting out the appropriate amount of 5 mg Naringenin and dissolving it by ultrasonication in 10 ml physiological saline. • 4) middle dose group of Naringenin: 1.5 mg/ml solution of Naringenin was prepared by weighting out the appropriate amount of 15 mg Naringenin and dissolving it by ultrasonication in 10 ml physiological saline. • 5) high dose group of Naringenin: 4.5 mg/ml solution of Naringenin was prepared by weighting out the appropriate amount of 45 mg Naringenin and dissolving it by ultrasonication in 10 ml physiological saline. • 6) low dose group of sodium salt of Naringenin: 0.5 mg/ml solution of sodium salt of Naringenin was prepared by weighting out the appropriate amount of 5 mg sodium salt of Naringenin and dissolving it by ultrasonication in 10 ml physiological saline. • 7) middle dose group of sodium salt of Naringenin: 1.5 mg/ml solution of sodium salt of Naringenin was prepared by weighting out the appropriate amount of 15 mg sodium salt of Naringenin and dissolving it by ultrasonication in 10 ml physiological saline. • 8) high dose group of sodium salt of Naringenin: 4.5 mg/ml solution of sodium salt of Naringenin was prepared by weighting out the appropriate amount of 45 mg sodium salt of Naringenin and dissolving it by ultrasonication in 10 ml physiological saline. • 3. Experimental Method: • 1) preparations of Phenol Red calibration standard: 12.5 ng/ml solution of Phenol Red was prepared by weighting out the appropriate amount of Phenol Red and dissolving it by ultrasonication in 5% NaHCO3. The series solution including 6.25ng/ml, 3.125ng/ml, 1.5625 ng/ml, 0.7813 ng/ml, 0.3906 ng/ml, 0.1953 ng/ml, 0.0977 ng/ml, 0.0488 ng/ml was prepared by diluting, which was detected by ultraviolet spectrometer. The calibration curve was calculated by concentration of Phenol Red as y-axis and OD value as x-axis. And the excretion account of Phenol Red in mice was quantitated by calibration curve. • 2) Animals were fasted for 12 hr before dosing. • 3) Animals were oral administered with labeled number, each animal was administered with 3 min and each group was accomplished in 30 min. • 4) After administered 30 min, every animal was injected 2 ml 5% Phenol Red solution via celiac injection. The time of every animal was 3 min. • 5) Every animal was executed with 3 min interval after celiac injection 30 min, and animal trachea was peeled off with forceps after neck skin sniped, which was riveted on operating table. • 6) plasma and Phenol Red adhered to trachea ektexine was sweeped by 0.9% NaCl solution with an injector. And filter paper was used to blot up the solution. • 7) Scissors cut down the animal trachea including thyroid cartilage and trachea back-end. • 8) The trachea was set in test tube with 1.5 ml 5% NaHCO3. • 9) The experiment of every animal was completed in 3 min. […]

| SMILES | R Value (mice [1]; sample concentration 0.5 mg/ml) | R Value (mice [1]; sample concentration 1.5 mg/ml) | R Value (mice [1]; sample concentration 4.5 mg/ml) | EDT50 (mice [1]; sample concentration 0.5 mg/ml) | EDT50 (mice [1]; sample concentration 1.5 mg/ml) | EDT50 (mice [1]; sample concentration 4.5 mg/ml) | Effect of relieving cough (mice [1]; sample concentration 0.5 mg/ml) | Effect of relieving cough (mice [1]; sample concentration 1.5 mg/ml) | Effect of relieving cough (mice [1]; sample concentration 4.5 mg/ml) | Dispel phlegm ratio (mice [2]; 5 mg/kg) | Dispel phlegm ratio (mice [2]; 15 mg/kg) | Dispel phlegm ratio (mice [2]; 45 mg/kg) | Excretion quantity of Phenol Red (mice [2]; 5 mg/kg) | Rectified excretion quantity of Phenol Red (mice [2]; 5 mg/kg) | Excretion quantity of Phenol Red (mice [2]; 15 mg/kg) | Rectified excretion quantity of Phenol Red (mice [2]; 15 mg/kg) | Excretion quantity of Phenol Red (mice [2]; 45 mg/kg) | Rectified excretion quantity of Phenol Red (mice [2]; 45 mg/kg) | also measured |
| --- | --- | --- | --- | --- | --- | --- | --- | --- | --- | --- | --- | --- | --- | --- | --- | --- | --- | --- | --- |
| O=C1C[C@@H](c2ccc(O)cc2)Oc2cc(O)cc(O)c21 [sodium salt of Naringenin] | 142.3% | 178.6% | 189.1% | 55.35 s | 69.48 s | 73.56 s | effect (the drug was provided with effect of relieve a cough if R>130%) | remarkably effect (The drug was provided with remarkable effect of relieve a cough if R>150%) | remarkably effect (The drug was provided with remarkable effect of relieve a cough if R>150%) | 148.72% | 162.38% | 224.93% | 1.3029 ± 0.3069 ng | 69.4942 ± 16.3724 ng/kg | 1.4225 ± 0.7361 ng | 75.8773 ± 39.2651 ng/kg | 1.9705 ± 0.6898 ng | 105.1057 ± 36.7945 ng/kg | – |
| O=C1CC(c2ccc(O)cc2)Oc2cc(O)cc(O)c21 (stereo not drawn) [Naringenin, 4', 5, 7 -trihydroxyflavanone] | 131.85% | 169.85% | 171.23% | 51.29 s | 66.07 s | 66.61 s | effect (the drug was provided with effect of relieve a cough if R>130%) | remarkably effect (The drug was provided with remarkable effect of relieve a cough if R>150%) | remarkably effect (The drug was provided with remarkable effect of relieve a cough if R>150%) | 146.13% | 159.97% | 219.85% | 1.2757 ± 0.4020 ng | 68.2832 ± 23.6102 ng/kg | 1.3523 ± 0.9303 ng | 74.7504 ± 57.2020 ng/kg | 1.9257 ± 0.6713 ng | 102.7325 ± 41.0313 ng/kg | time of appearing tussis (mice [1]; compared with Dextromethorphan Hydrobromide (positive control group)): statistical significance prolonging the time; dispel phlegm effect (mice [2]; high dose group compared to positive control group of Tankejing): statistical better than Tankejing; exudates increase of mice trachea (mice [2]; three doses (low, middle, high), versus negative control group): statistical significance stimulate the exudates increase of mice trachea |
